According to ChEMBL document CHEMBL2177080, “N-[5-(5-fluoropyridin-3-yl)-1H-pyrazol-3-yl]-4-piperidin-1-ylbutyramide (SEN78702, WYE-308775): a medicinal chemistry effort toward an α7 nicotinic acetylcholine receptor agonist preclinical candidate” (J Med Chem, 2012):
One block for each molecule: values may come before it. The source made the active and inactive calls. The rule behind the calls is not given here.

Columns and labels:
[1] = biological target: Acetylcholine receptor; alpha1/beta1/delta/gamma (Homo sapiens, UniProt P02708+P07510+P11230+Q07001); assay: Agonist activity at alpha1beta1gammadelta nAChR nAchR in human TE671 cells assessed as stimulation of calcium flux by FLIPR; type: functional, cell-based, TE-671; details: for pIC50: TE-671
Acetylcholine receptor; alpha1/beta1/delta/gamma, sequence (P02708 whole entry): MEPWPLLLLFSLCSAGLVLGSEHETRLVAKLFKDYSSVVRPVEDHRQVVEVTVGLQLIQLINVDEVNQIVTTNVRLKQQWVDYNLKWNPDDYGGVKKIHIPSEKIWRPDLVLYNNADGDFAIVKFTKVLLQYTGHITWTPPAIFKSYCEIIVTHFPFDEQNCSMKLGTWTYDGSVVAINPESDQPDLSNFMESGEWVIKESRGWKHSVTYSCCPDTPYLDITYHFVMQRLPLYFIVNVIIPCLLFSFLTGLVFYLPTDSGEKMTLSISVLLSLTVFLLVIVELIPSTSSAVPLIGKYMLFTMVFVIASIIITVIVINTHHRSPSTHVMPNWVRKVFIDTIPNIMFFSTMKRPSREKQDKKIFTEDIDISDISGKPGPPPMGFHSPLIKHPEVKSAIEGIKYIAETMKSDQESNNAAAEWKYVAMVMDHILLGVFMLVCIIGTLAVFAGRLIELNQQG
Acetylcholine receptor; alpha1/beta1/delta/gamma, sequence (P07510 whole entry): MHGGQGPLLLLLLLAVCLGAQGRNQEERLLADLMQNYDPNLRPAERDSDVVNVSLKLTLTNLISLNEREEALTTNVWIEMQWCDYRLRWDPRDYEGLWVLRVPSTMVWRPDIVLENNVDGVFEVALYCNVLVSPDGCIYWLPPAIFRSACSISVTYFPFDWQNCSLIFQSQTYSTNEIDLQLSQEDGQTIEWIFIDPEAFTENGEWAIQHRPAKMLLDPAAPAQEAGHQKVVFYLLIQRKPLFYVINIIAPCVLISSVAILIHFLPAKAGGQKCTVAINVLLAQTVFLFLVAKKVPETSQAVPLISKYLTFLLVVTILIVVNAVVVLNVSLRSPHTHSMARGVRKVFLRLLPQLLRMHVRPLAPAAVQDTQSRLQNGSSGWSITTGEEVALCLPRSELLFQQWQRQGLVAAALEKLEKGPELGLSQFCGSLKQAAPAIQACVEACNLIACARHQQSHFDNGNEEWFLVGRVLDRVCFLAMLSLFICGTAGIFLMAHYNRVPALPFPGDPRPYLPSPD
Acetylcholine receptor; alpha1/beta1/delta/gamma, sequence (P11230 whole entry): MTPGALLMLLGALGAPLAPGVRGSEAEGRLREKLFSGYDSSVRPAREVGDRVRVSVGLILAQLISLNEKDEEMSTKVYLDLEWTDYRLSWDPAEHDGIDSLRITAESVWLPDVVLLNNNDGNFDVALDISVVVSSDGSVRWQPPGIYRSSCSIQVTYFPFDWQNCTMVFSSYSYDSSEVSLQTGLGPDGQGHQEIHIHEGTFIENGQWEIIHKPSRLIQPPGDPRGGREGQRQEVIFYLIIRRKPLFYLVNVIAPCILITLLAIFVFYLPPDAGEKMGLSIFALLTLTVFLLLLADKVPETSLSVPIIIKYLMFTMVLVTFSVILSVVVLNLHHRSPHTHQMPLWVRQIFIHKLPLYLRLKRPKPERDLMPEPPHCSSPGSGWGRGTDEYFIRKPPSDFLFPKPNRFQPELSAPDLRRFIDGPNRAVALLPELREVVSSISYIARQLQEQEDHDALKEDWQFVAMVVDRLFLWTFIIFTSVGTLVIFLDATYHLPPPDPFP
Acetylcholine receptor; alpha1/beta1/delta/gamma, sequence (Q07001 whole entry): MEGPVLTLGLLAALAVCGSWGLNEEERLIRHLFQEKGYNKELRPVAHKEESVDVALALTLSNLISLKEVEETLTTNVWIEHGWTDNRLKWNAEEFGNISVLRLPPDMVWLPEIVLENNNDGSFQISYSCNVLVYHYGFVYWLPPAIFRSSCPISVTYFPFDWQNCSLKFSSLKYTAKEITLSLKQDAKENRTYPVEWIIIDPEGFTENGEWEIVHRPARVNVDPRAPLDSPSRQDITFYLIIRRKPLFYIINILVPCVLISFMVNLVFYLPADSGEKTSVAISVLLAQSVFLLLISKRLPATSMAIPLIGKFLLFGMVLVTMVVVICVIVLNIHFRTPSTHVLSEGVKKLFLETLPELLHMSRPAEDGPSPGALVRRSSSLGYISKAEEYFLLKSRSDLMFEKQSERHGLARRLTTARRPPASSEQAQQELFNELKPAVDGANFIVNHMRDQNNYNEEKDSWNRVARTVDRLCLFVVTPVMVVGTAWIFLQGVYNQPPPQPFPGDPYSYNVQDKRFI

[2] = biological target: Neuronal acetylcholine receptor subunit alpha-3 (Homo sapiens, UniProt P32297); assay: Agonist activity at alpha3 nAchR in human SH-SY5Y cells assessed as stimulation of calcium flux by FLIPR; type: functional, cell-based
Neuronal acetylcholine receptor subunit alpha-3, sequence (P32297 whole entry): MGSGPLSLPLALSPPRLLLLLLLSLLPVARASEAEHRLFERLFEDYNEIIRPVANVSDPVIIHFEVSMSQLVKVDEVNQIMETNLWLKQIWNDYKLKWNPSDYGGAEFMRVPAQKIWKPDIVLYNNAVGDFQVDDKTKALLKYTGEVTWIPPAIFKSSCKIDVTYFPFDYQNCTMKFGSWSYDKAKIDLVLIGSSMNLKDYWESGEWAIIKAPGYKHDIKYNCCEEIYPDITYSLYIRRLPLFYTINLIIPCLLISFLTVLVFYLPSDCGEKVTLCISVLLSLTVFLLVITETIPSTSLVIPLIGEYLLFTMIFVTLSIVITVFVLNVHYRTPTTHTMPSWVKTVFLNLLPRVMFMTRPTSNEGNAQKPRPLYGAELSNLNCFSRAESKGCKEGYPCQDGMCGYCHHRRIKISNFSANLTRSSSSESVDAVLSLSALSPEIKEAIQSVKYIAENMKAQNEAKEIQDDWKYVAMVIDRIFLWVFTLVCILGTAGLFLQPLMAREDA

[3] = biological target: T1, Neuronal acetylcholine receptor subunit alpha-7 (Rattus norvegicus, UniProt Q05941); assay: Agonist activity at rat alpha7 nAchR expressed in rat GH4C1 cells assessed as stimulation of calcium flux by FLIPR
T1 sequence (Q05941 whole entry): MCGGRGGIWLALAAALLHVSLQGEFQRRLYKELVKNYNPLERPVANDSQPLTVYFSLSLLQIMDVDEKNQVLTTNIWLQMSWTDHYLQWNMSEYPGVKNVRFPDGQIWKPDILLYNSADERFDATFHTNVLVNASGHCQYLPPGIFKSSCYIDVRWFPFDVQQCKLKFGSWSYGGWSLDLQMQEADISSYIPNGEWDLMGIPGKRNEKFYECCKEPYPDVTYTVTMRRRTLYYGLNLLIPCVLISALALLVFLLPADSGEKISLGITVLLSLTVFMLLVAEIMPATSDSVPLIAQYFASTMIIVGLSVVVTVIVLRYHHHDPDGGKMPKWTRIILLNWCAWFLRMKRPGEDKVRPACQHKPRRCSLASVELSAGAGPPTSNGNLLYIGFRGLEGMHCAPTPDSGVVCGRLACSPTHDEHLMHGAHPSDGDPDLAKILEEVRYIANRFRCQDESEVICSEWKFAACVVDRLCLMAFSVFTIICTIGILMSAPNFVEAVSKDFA

[4] = biological target: T2, 5-hydroxytryptamine receptor 3A (Homo sapiens, UniProt P46098); assay: (§1) Agonist activity at human 5HT3R expressed in HEK293 cells assessed as stimulation of calcium flux by FLIPR; type: functional, cell-based
T2 sequence (P46098 whole entry): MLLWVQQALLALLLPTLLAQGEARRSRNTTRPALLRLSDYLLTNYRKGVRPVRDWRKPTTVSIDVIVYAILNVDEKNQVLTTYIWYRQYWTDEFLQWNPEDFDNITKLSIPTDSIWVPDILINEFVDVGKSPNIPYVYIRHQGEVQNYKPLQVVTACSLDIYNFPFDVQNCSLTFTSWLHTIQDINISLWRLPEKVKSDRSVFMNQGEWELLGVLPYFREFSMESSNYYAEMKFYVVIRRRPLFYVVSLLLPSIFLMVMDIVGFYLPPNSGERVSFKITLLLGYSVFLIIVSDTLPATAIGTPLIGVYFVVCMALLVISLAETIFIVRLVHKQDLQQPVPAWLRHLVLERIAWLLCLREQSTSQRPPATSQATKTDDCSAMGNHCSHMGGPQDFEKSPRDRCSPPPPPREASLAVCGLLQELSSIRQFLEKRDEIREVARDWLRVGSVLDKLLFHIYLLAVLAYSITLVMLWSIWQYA

[5] = biological target: Neuronal acetylcholine receptor subunit alpha-7 (Rattus norvegicus) (UniProt Q05941); assay: Agonist activity at rat alpha7 nAchR expressed in rat GH4C1 cells assessed as stimulation of calcium flux by FLIPR relative to nicotine; type: functional, cell-based; details: GH4-C1
Neuronal acetylcholine receptor subunit alpha-7 (Rattus norvegicus), sequence (Q05941 whole entry): as the sequence (Q05941 whole entry) above

Plasma = assay: Stability in rat plasma assessed as compound remaining incubated for 3 hrs; type: ADME, cell-free
[6] = Clearance in Wistar rat 2 mg/kg, iv; type: ADME, organism-based; set-up: dose 2 mg/kg, route intravenous; details: in vivo
Rattus norvegicus [7] = assay: Inhibition of MK801-Induced prepulse inhibition deficits in Long Evans rat administered orally 60 mins before MK-801 challenge; type: functional; details: po, read-out: MED
[8] = biological target: T1, Neuronal acetylcholine receptor subunit alpha-7; assay: Displacement of [3H]-epibatidine from rat alpha7 nAchR expressed in rat GH4C1 cell membranes; set-up: species or system GH4-C1, Membrane
[9] = biological target: T3, Alpha-2B adrenergic receptor (Homo sapiens) (UniProt P18089); assay: Inhibition of alpha2b adrenergic receptor at 10 uM
T3 sequence (whole entry): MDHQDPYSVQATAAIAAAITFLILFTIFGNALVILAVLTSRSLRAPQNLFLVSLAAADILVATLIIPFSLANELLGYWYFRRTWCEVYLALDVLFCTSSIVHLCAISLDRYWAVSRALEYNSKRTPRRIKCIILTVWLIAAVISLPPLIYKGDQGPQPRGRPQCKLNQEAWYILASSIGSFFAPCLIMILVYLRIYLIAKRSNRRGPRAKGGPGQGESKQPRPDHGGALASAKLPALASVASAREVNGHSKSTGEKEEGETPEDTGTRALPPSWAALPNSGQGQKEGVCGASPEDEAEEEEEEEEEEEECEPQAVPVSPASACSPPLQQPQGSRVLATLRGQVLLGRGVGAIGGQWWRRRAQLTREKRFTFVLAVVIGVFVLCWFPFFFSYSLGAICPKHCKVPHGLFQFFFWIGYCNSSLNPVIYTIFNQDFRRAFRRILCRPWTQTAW

[10] = biological target: Neuronal acetylcholine receptor subunit alpha-7 (Homo sapiens, UniProt P36544); assay: Agonist activity at human alpha7 nAchR by patch clamp assay; type: functional
Neuronal acetylcholine receptor subunit alpha-7 (Homo sapiens, UniProt P36544), sequence (P36544 whole entry): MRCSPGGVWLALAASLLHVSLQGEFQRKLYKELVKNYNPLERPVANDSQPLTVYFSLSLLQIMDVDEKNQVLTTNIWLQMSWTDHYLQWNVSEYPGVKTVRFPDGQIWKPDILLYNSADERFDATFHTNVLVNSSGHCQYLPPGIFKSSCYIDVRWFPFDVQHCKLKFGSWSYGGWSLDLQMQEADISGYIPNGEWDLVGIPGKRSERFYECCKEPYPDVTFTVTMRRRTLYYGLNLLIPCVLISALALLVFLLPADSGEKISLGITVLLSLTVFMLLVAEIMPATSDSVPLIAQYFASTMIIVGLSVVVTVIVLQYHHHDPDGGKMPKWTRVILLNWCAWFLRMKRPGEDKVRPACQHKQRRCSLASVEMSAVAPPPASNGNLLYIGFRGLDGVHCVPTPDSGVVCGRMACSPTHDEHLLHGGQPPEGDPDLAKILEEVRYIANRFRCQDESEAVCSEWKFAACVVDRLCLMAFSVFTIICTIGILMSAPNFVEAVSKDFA

[11] = Tmax in Wistar rat 10 mg/kg, po; type: ADME, organism-based; set-up: dose 10 mg/kg, route oral; details: in vivo
[12] = biological target: T4, Alpha-2A adrenergic receptor (Homo sapiens) (UniProt P08913); assay: Inhibition of alpha2a adrenergic receptor at 10 uM
T4 sequence (whole entry): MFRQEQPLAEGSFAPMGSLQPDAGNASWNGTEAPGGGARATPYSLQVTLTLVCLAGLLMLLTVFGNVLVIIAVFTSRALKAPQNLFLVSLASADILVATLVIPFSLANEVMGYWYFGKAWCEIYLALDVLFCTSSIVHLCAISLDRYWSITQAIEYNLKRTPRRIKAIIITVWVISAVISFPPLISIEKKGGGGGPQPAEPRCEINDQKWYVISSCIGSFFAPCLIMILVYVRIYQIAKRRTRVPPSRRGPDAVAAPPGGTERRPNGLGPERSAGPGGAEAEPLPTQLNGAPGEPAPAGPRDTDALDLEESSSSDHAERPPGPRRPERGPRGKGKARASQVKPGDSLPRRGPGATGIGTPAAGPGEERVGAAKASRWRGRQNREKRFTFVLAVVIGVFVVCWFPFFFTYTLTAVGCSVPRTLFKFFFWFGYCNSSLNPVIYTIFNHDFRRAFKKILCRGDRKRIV

Rattus norvegicus [13] = assay: Induction of memory enhancement Wistar rat at 1 to 10 mg/kg, po administered 30 mins before acquisition trial pre-treated with 3 mg/kg alpha7 selective antagonist methyllycaconitin by novel object recognition test; type: functional, organism-based
Rattus norvegicus [14] = assay: Induction of memory enhancement Wistar rat administered orally 30 mins before acquisition trial by novel object recognition test; type: functional; details: po, read-out: MED
Rattus norvegicus [15] = assay: Inhibition of MK801-Induced prepulse inhibition deficits in Long Evans rat at 1 to 10 mg/kg, po administered 60 mins before MK-801 challenge; type: functional, organism-based
[16] = biological target: T1, Neuronal acetylcholine receptor subunit alpha-7; assay: Agonist activity at rat alpha7 nAchR expressed in rat GH4C1 cells by patch clamp assay; type: functional, cell-based, GH4-C1
[17] = Toxicity in rat during 7-day tolerability study; type: organism-based; details: in vivo
[18] = Cmax in Wistar rat brain 3 mg/kg, po; type: ADME, organism-based; set-up: dose 3 mg/kg, route oral
[19] = biological target: Histamine H3 receptor (Homo sapiens) (UniProt Q9Y5N1); assay: Inhibition of histamine H3 receptor at 10 uM
[20] = biological target: T5, Alpha-2C adrenergic receptor (Homo sapiens) (UniProt P18825); assay: Inhibition of alpha2c adrenergic receptor at 10 uM
T5 sequence (whole entry): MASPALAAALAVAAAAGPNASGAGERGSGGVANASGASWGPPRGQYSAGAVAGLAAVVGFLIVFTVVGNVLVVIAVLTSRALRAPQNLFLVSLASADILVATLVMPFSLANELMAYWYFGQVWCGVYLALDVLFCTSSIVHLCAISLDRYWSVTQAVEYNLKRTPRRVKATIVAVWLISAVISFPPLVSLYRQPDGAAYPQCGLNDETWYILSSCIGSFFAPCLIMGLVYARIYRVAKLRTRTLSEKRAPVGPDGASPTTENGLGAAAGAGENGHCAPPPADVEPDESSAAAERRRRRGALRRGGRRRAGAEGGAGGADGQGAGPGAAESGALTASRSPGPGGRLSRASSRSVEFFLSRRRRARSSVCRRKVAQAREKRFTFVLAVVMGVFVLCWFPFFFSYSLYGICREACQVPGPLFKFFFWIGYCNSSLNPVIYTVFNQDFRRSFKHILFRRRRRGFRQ

Rattus norvegicus [21] = assay: Induction of memory enhancement Wistar rat at 1 to 10 mg/kg, po administered 30 mins before acquisition trial by novel object recognition test; type: functional, organism-based
[22] = biological target: T6, 5-hydroxytryptamine receptor 3A (Homo sapiens) (UniProt P46098); assay: as §1; type: functional, cell-based
T6 sequence (whole entry): T2 sequence (P46098 whole entry)

[23] = biological target: Voltage-gated inwardly rectifying potassium channel KCNH2 (Homo sapiens, UniProt Q12809); assay: Inhibition of human ERG expressed in CHO cells; type: cell-based
Voltage-gated inwardly rectifying potassium channel KCNH2, sequence (Q12809 whole entry): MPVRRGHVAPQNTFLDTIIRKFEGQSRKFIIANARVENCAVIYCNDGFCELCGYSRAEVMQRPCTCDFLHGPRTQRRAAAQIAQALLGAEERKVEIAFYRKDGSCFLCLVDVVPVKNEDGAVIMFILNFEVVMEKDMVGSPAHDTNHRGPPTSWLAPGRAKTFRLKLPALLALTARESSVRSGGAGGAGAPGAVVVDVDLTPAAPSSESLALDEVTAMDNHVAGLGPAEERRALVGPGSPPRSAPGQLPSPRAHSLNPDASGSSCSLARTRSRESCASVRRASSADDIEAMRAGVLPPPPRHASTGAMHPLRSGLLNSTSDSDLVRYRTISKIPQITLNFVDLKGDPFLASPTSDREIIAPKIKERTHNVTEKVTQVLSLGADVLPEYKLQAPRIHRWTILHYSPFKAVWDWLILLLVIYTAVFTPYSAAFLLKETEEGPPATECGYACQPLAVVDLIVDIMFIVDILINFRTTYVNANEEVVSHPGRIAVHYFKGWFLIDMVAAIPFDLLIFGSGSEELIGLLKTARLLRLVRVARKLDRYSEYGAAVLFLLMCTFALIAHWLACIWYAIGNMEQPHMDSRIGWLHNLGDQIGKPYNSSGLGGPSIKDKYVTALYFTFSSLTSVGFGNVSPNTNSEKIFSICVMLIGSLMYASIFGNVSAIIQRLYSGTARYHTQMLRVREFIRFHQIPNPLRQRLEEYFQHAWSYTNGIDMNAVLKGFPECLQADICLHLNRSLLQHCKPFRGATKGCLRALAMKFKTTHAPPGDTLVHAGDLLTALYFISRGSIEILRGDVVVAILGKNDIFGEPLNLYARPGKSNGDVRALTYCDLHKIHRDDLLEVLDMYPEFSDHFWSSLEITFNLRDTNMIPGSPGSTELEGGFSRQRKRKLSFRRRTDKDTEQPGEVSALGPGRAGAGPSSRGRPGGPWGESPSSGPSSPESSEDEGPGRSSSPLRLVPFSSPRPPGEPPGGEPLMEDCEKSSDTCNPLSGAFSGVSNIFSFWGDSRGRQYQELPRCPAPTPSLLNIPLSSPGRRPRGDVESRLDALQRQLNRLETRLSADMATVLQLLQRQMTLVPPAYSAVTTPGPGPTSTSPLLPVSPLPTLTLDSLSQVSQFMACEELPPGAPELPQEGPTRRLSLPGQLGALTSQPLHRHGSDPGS

Compound: COc1ccc(-c2cc(NC(=O)CCN3CCCN(C(C)=O)CC3)[nH]n2)cc1
Emax [5]: > 90% | EC50 [3]: 8.51 µM

Compound: O=C(CCCN1CCCCC1)Nc1cc(-c2cncc(F)c2)n[nH]1
clearance [6]: 23 mL/min/kg | minimal effective dose (Rattus norvegicus [7]): 3 mg/kg | Ki [8]: 0.39 µM | inhibition [9]: 64% | Stability (Plasma): Stable | EC50 [10]: 10 µM | Tmax [11]: 1 h | inhibition [12]: 73% | Activity (Rattus norvegicus [13]): inactive | minimal effective dose (Rattus norvegicus [14]): 3 mg/kg | inhibition (Rattus norvegicus [15]): Active | EC50 [16]: 10.7 µM | MTD at 7 day [17]: ≤ 100 mg/kg/day | Cmax [18]: 55 ng/g | EC50 [3]: 0.74 µM | inhibition [19]: 62% | inhibition [20]: 57% | Activity (Rattus norvegicus [21]): Active

Compound: COc1ccc(-c2cc(NC(=O)CCCN3CCOCC3)[nH]n2)cc1
EC50 [3]: 6.61 µM

Compound: CC(C)(C)c1cc(NC(=O)CCCN2CCCCC2)[nH]n1
pIC50 [1]: inactive | pIC50 [2]: inactive | EC50 [3]: > 31.6 µM | pIC50 [22]: inactive

Compound: COc1ccc(-c2cc(NC(=O)CCCCCN3CCCN(C(C)=O)CC3)[nH]n2)cc1
Emax [5]: > 90%

Now from value to molecule, other results behind:

IC50 [1]: > 31.6 µM | IC50 [2]: 7.94 µM | EC50 [3]: 0.912 µM | IC50 [4]: > 31.6 µM
Compound: COc1ccc(-c2cc(NC(=O)CCCN3CCCCCC3)[nH]n2)cc1

IC50 [1]: > 31.6 µM | Stability (Plasma): Stable | IC50 [2]: > 31.6 µM | EC50 [3]: 0.417 µM | IC50 [4]: > 31.6 µM
Compound: COc1ccc(-c2cc(NC(=O)CCCN3CCCCC3)[nH]n2)cc1

Emax [5]: > 90% | Stability (Plasma): Stable | EC50 [3]: 0.912 µM
Compound: COc1ccc(-c2cc(NC(=O)CCCN3CCCN(C(C)=O)CC3)[nH]n2)cc1

EC50 [3]: 1.2 µM
Compound: COc1ccc(-c2cc(NC(=O)CCCCCN3CCCN(C(C)=O)CC3)n[nH]2)cc1

EC50 [3]: 1.17 µM
Compound: COc1ccc(-c2cc(NC(=O)CCCN3CCCOCC3)[nH]n2)cc1

pIC50 [1]: Active | Stability (Plasma): Stable | pIC50 [2]: Active | EC50 [3]: 0.468 µM
Compound: COc1cccc(-c2cc(NC(=O)CCCN3CCCCC3)[nH]n2)c1

pIC50 [1]: Active | Stability (Plasma): Stable | pIC50 [2]: Active | EC50 [3]: 0.832 µM
Compound: O=C(CCCN1CCCCC1)Nc1cc(-c2cccc(F)c2)n[nH]1
IC50 [23]: 1.29 µM
